Source: publication PMC9961948, “Interaction of Amphipathic Peptide from Influenza Virus M1 Protein with Mitochondrial Cytochrome Oxidase” (International Journal of Molecular Sciences, 2023)
Where two headings read alike, the source gives them in different places.

Legend:
[1] = Permeabilization of calcein-loaded asolectin liposomes (calcein release); details: 5 μM peptide
[2] = molecular target: T1, cytochrome c oxidase (CcO) purified from heart mitochondria (Bos taurus, UniProt P00396+P07471+P68530); assay: Cytochrome oxidase activity of solubilized mitochondrial CcO (oxygen uptake); assay type: biochemical
T1 construct: Cytochrome c oxidase was purified from the heart mitochondria of Bos taurus; from tissue; host or cells: bovine heart mitochondria

[3] = tested on: cytochrome c oxidase (CcO), peroxidase activity; assay: Peroxidase partial activity of solubilized CcO (peroxidation of ferrocyanide); assay type: biochemical, Bos taurus; details: 50 μM P4; 0.6 μM solubilized CcO, 0.2 mM ferrocyanide with equimolar ferricyanide, 4 mM H2O2
Procedure: The two-electron reduction of H2O2 to water refers to the peroxidase phase of the CcO catalytic cycle. As shown previously, this reaction can be carried out aerobically using a high-potential electron donor [51]. We followed this partial activity of CcO in the presence of a ferro/ferricyanide pair at E’ ≈ +420 mV when the oxidase reaction becomes negligible. Peroxidation of ferrocyanide by CcO was recorded spectrophotometrically (Figure 3).
Peroxidation of 0.2 mM ferrocyanide (against the background of equimolar ferricyanide) was monitored at 0.6 μM solubilized CcO. The reaction was triggered by the addition of 4 mM H2O2 (shown by the arrow). […] The initial jump upon H2O2 addition reflects spectral response in the γ-band of heme a3 upon oxoferryl intermediate formation.
Peroxidase partial activity of CcO was assayed in BM following peroxidation of ferrocyanide by the absorption difference at 420 nm vs. 500 nm references, using the spectrophotometer SLM Aminco DW-2000 (SLM Instruments, Urbana, IL, USA) in a dual-wavelength mode. In order to obtain a redox buffer with Em ≈ 420 mV, equal amounts of ferri- and ferrocyanide were mixed. No ferrocyanide oxidase activity was observed until the peroxidase reaction was initiated by the addition of H2O2. The reaction was carried out in a standard semi-micro cuvette (Hellma, Mullheim, Germany) with blackened side walls and a 10 mm light pathway.

[4] = molecular target: T2, CcO in rat liver mitochondria (Rattus norvegicus, UniProt P00406+P05503); assay: CcO activity in the mitochondrial membrane (respiration of rat liver mitochondria); assay type: biochemical
T2 construct: Rat liver mitochondria were isolated by differential centrifugation; from tissue; host or cells: rat liver mitochondria

[5] = tested on: CcO reconstituted into asolectin vesicles; assay: CcO activity in asolectin proteoliposomes; assay type: biochemical, Bos taurus; details: peptide up to 150 μM

T2 sequence (P00406 whole entry, other chains not shown): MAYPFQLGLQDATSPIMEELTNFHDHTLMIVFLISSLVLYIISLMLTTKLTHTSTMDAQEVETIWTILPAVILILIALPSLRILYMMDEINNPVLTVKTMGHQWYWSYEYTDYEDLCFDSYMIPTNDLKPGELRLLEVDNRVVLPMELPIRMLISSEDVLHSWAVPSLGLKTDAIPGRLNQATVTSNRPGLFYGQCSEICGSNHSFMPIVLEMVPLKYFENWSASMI

Substance: Ac-RTKLWEMLVELGNMDKAVKLWRKLKR-NH2 [P4]
- time to reach the 100% level of calcein release ([1]; 100% = after Triton X-100 0.1%): 3 min
- t1/2 of fluorescence increase (calcein release) ([1]; liposomes 0.1 mg lipid/mL, 20 mM MOPS/Tris pH 7.3, 0.2 mM EDTA, fluorescence 520 nm (excitation 490 nm)): ~ 12 s
- final rate of the oxidase reaction, % of the initial ([2]; 20 μM P4 added in the course of the reaction, constant level 1.5 min later, solubilized CcO 20 nM): ≤ 15%
- Ki ([2]; solubilized bovine heart CcO 20 nM, oxygen uptake, Clark electrode, 25 °C, BM 50 mM Hepes/Tris pH 7.6, 50 mM KCl, 1 mM (0.05%) DM, 5 mM ascorbate, 0.1 mM TMPD, 10 μM cytochrome c, fit by Equation (1), read-out: Inhibition of CcO, Solubilized, Ki(app)): 0.0076 mM
- Ki ([2]; solubilized mitochondrial CcO, intercept of linear dependence of Ki(app) on [DM], read-out: true Ki (extrapolation of DM to zero)): 0.003 mM
- rate of peroxidase reaction (ferricyanide formation) upon addition of peptide [3]: did not change
- inhibitor concentration up to which the rate of the oxidase reaction remains almost unchanged [4]: ~ 10 μM
- oxidase reaction rate of CcO in proteoliposomes upon addition of peptide [5]: does not change the reaction rate
